Measured values taken from patent publication US8415376B2, “Inhibitors of PI3 kinase” (Amgen Inc., priority 2008, dated 2013).

Experiments:
[1] = test system: phosphorylation of Akt at Ser473; experiment: Cell-based phospho-Akt Ser473 assay (HCT116 cell); conditions: HCT 116 human colon carcinoma cells, IGF-1 stimulated; average
Text: Cell-Based Phospho-Akt Ser473 Assay (HCT116 Cell)
This assay determines the ability of a compound to inhibit the phosphorylation of […] in Akt using a MSD based sandwich immunoassay (Meso Scale Detection, Meso Scale Discovery (MSD), Gaithersburg, Md.). HCT 116 human colon carcinoma cell lines can be grown in McCoy's 5A growth medium (GIBCO, Carlsbad, Calif.) containing 10% FBS (GIBCO, Carlsbad, Calif.) and X1 Penicillin-streptomycin-glutamine (GIBCO, Carlsbad, Calif.). Prior to the assay, cells can be detached from the culture flask with trypsin, and re-suspended in complete media to give a final concentration of 1.6×10^5 cells per mL. Aliquots (100 μl) of the HCT116 cell suspension can be seeded into each well of a 96 well tissue culture plate to give a final density of 16,000 cells per well. Cells can then be incubated overnight at 37° C.
The following day the cells can be treated with serially diluted test compounds and incubated for 2 hours at 37° C. The culture media on the HCT 116 cells can be replaced with 189 μL McCoys media, supplemented with 0.1% BSA (ICN Biomedicals, Inc., Costa Mesa, Calif.). Compounds can be prepared as either 10 mM or 0.5 mM stock solutions in DMSO, and serially diluted 3 fold in a 10-point dose-response curve to give final concentrations that are 200-fold greater than the desired final test concentration. Aliquots (1 μL) of serially-diluted compounds can be transferred to 96 well tissue culture plates containing the HCT 116 cells. […] As a maximum response control, wells can contain 0.5% DMSO in place of compound. The plates can be mixed at 700 rpm for 2 min to ensure even distribution of the test compound and incubated for 2 hours at 37° C. Cells can then be stimulated with insulin-like growth factor 1 (Sigma, St Louis, Mo.) at final concentration of 100 ng/ml for 15 minutes at 37° C. The media can then be removed and the cells treated with 80 μL cell-lysis buffer (MSD) containing a cocktail of protease and phosphatase inhibitors for one hour at 4° C.
25 μL Cell lysate can then be transferred to pre-blocked MSD assay plates pre-coated with a capture antibody specific for Akt, and the plates can be incubated for 2 hours at room temperature. The cell lysates can then be removed and plates can then be washed four times with 200 μl per well of Tris wash buffer (500 mM Tris, PH 7.5, 1.5 M NaCl, 0.2% Tween-20). Subsequently cells can be incubated for 1 hour at room temperature with a 25 μL solution containing the detection antibody, anti-phospho Akt (Ser 473) labeled with an electrochemiluminescent compound (Meso Scale Discovery SULPHO-TAG™ label, MSD, Gaithersburg, Md.). The detection antibody can be removed and plates can then be washed four times with 200 μL per well of Tris wash buffer. An aliquot of 150 μL of diluted MSD read buffer can then be applied to each well, and the electrochemiluminescent signal can be measured using a MSD SECTOR™ plate reader (Meso Scale Discovery, Gaithersburg, Md.). This instrument measures the intensity of emitted light to determine a quantitative measure of phosphorylated Akt in each well. The dose-response data obtained with each compound can be analyzed and the IC50 inhibition of Akt phosphorylation at Ser473 can be calculated.
Activity data for the compounds tested in the PI3K cell based Akt assay is provided in Table 1 under the column heading HCT116 Cell.

PI3Kβ = molecular target: T1, PI3Kβ (Homo sapiens, UniProt P42338); experiment: In vitro PI3 kinase enzyme assay (PI3K ATP loss), beta; assay type: biochemical; conditions: average if run more than once
T1 construct: Full length p110 subunits of PI3K α, β and δ, N-terminally labeled with polyHis tag; polyHis (N); made in house; host or cells: Sf9 insect cells (baculovirus)
Description: (§1) Full length p110 subunits of PI3K α, β and δ, N-terminally labeled with polyHis tag, can be co-expressed with p85 with Baculo virus expression vectors in sf9 insect cells. P110/p85 heterodimers can be purified by sequential Ni-NTA, Q-HP, Superdex-100 chromatography. Purified α, β and δ isozymes can be stored at −20° C. in 20 mM Tris, pH 8, 0.2M NaCl, 50% glycerol, 5 mM DTT, 2 mM Na cholate. […] The γ isozyme can be purified by sequential Ni-NTA, Superdex-200, Q-HP chromatography. The γ isozyme can be stored frozen at −80° C. in NaH2PO4, pH 8, 0.2M NaCl, 1% ethylene glycol, 2 mM β-mercaptoethanol.
(§2) In Vitro PI3 Kinase Enzyme Assays (PI3K Atploss)
(§3) PI3K enzyme assays (alpha, beta, delta and gamma) can be performed in 25 μL with the above final concentrations of components in white polyproplyene plates. Phosphatidyl inositol phosphoacceptor, PtdIns(4,5)P2 (eg. P4508) can be obtained from Echelon Biosciences, Salt Lake City, Utah. […] Test compounds can be dissolved in DMSO and diluted with three-fold serial dilutions. The compound in DMSO (1 μL) may be added per test well, and the inhibition relative to reactions containing no compound, with and without enzyme can be determined After assay incubation at RT, the reaction can be stopped and residual ATP can be determined by addition of an equal volume of a commercial ATP bioluminescence kit (Perkin Elmer EasyLite, Perkin Elmer, Waltham, Mass.) according to the manufacturer's instructions, and detected using an Analyst GT luminometer.

PI3Kα = molecular target: T2, PI3Kα (Homo sapiens, UniProt P42336); experiment: In vitro PI3 kinase enzyme assay (PI3K ATP loss), alpha; assay type: biochemical; conditions: average if run more than once; read-out: ATP Loss (PBKα) IC50 μM (Avg)
T2 construct: Full length p110 subunits of PI3K α, β and δ, N-terminally labeled with polyHis tag; polyHis (N); made in house; host or cells: Sf9 insect cells (baculovirus)
T2 sequence (P42336 whole entry): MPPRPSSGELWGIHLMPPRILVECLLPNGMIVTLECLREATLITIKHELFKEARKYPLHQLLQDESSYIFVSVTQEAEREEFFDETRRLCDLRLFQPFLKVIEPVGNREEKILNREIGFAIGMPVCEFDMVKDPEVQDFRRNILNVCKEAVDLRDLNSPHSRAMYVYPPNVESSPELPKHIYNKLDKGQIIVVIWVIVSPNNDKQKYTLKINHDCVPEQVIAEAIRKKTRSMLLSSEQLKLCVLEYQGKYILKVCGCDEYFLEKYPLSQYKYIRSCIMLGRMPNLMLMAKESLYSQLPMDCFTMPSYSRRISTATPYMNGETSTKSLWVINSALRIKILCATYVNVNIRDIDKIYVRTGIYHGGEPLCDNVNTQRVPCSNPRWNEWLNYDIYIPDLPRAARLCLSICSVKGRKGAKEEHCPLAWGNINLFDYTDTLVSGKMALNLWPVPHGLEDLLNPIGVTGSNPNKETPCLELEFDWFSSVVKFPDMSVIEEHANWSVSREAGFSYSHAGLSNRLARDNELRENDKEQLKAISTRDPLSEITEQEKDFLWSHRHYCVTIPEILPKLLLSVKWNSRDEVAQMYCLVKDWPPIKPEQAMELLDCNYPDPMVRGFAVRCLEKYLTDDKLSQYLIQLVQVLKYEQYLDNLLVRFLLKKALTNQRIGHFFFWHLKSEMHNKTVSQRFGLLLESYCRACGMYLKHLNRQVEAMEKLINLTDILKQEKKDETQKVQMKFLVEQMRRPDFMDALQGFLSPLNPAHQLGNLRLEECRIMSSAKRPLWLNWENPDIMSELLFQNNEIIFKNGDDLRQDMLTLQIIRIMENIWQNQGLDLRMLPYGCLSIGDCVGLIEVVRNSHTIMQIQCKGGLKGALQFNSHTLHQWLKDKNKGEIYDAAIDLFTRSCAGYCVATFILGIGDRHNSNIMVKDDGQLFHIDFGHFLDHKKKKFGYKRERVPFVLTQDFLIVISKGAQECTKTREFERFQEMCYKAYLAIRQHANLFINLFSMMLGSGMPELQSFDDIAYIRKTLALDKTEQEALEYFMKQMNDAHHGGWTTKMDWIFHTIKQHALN
T2 sequence (P27986 whole entry partner): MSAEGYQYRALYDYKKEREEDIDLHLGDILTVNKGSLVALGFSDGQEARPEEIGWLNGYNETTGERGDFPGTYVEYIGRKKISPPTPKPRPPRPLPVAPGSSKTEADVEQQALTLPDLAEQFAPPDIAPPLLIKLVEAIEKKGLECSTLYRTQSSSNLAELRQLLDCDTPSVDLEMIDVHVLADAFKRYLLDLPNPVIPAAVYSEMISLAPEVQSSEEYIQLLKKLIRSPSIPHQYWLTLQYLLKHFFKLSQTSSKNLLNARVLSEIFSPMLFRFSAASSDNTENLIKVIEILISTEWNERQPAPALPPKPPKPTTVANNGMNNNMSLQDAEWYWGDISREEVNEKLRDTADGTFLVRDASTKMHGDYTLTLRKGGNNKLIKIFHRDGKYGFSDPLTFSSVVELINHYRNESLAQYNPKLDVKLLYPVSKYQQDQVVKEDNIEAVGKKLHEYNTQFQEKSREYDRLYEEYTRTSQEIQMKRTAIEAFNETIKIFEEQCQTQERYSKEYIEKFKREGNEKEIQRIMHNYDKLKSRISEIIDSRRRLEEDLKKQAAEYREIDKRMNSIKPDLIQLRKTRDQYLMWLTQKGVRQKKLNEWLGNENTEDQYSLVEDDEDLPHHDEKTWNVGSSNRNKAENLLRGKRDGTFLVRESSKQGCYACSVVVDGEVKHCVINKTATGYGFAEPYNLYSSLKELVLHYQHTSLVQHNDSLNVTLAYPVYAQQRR
Description: as §1, §2, §3

T1 sequence (P42338 whole entry): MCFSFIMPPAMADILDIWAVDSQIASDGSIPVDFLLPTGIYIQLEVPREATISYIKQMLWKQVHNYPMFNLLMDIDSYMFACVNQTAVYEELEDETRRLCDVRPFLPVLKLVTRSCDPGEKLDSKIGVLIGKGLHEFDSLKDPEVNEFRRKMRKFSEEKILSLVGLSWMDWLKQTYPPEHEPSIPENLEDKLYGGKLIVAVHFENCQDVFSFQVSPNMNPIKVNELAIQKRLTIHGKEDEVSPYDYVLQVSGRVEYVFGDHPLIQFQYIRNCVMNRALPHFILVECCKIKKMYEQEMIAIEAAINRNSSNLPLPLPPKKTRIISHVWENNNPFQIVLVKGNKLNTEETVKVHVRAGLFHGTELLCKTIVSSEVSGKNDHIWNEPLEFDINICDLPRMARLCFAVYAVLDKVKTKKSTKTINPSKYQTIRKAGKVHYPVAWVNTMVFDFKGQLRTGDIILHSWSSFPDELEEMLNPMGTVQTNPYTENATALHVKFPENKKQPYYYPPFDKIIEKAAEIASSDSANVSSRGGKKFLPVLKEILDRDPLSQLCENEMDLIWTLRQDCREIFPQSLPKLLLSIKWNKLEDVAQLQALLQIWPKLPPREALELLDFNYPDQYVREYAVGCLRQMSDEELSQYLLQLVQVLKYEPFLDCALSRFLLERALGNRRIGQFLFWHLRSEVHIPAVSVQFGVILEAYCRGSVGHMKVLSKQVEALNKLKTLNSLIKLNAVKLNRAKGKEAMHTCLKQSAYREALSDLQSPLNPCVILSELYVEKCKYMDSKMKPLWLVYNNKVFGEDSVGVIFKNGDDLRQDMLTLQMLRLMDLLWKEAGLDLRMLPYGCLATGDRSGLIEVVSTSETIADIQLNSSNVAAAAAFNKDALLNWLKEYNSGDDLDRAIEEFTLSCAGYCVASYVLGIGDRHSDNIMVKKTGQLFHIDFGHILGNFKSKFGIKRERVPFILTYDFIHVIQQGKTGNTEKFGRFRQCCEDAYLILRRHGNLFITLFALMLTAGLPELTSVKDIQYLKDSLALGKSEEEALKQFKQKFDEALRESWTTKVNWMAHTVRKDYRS
T1 sequence (P27986 whole entry partner): as the sequence (P27986 whole entry partner) above

SMILES	IC50 [1] [µM]	IC50 (PI3Kβ) [µM]	IC50 (PI3Kα) [µM]
O=S(=O)(Nc1cc(-c2ccc3nccc(N4CCC(O)C4)c3c2)cnc1Cl)c1ccc(F)cc1 (stereo not drawn) [Example 26, N-(2-chloro-5-(4-(3-hydroxy-1-pyrrolidinyl)-6-quinolinyl)-3-pyridinyl)-4-fluorobenzenesulfonamide]	2.96	0.0778	0.0111
O=S(=O)(Nc1cc(-c2ccc3nccc(N4CCC(O)CC4)c3c2)cnc1Cl)c1ccc(F)cc1 [Example 27, N-(2-chloro-5-(4-(4-hydroxy-1-piperidinyl)-6-quinolinyl)-3-pyridinyl)-4-fluorobenzenesulfonamide]	0.176	0.0126	0.0041
CC(c1ccccc1)N1CCN(c2ccnc3ccc(-c4cnc(Cl)c(NS(=O)(=O)c5ccc(F)cc5)c4)cc23)CC1 (stereo not drawn) [Example 29, N-(2-chloro-5-(4-(4-(1-phenylethyl)-1-piperazinyl)-6-quinolinyl)-3-pyridinyl)-4-fluorobenzenesulfonamide]	0.345	0.0449	0.0069
CC1CN(c2ccnc3ccc(-c4cnc(Cl)c(NS(=O)(=O)c5ccc(F)cc5)c4)cc23)CC(C)O1 (stereo not drawn) [Example 30, N-(2-chloro-5-(4-(2,6-dimethyl-4-morpholinyl)-6-quinolinyl)-3-pyridinyl)-4-fluorobenzenesulfonamide]	0.0228	0.0302	0.0041
O=S(=O)(Nc1cc(-c2ccc3nccc(N4CCOCC4)c3c2)cnc1Cl)c1ccccc1F [Example 32, N-(2-chloro-5-(4-(4-morpholinyl)-6-quinolinyl)-3-pyridinyl)-2-fluorobenzenesulfonamide]	0.0117	0.0248	0.005
O=S(=O)(Nc1cc(-c2ccc3nccc(N4CCOCC4)c3c2)cnc1Cl)c1ccccc1Cl [Example 33, 2-chloro-N-(2-chloro-5-(4-(4-morpholinyl)-6-quinolinyl)-3-pyridinyl)benzenesulfonamide]	0.0063	0.0219	0.0041
O=S(=O)(Nc1cc(-c2ccc3nccc(N4CCOCC4)c3c2)cnc1Cl)c1c(Cl)cccc1Cl [Example 34, 2,6-dichloro-N-(2-chloro-5-(4-(4-morpholinyl)-6-quinolinyl)-3-pyridinyl)benzenesulfonamide]	0.0376	0.0359	0.0065
O=S(=O)(Nc1cc(-c2ccc3nccc(-c4ccccc4)c3c2)cnc1Cl)c1ccc(F)cc1 [Example 36, N-(2-chloro-5-(4-phenyl-6-quinolinyl)-3-pyridinyl)-4-fluorobenzenesulfonamide]	0.0914	0.0149	0.0071
O=S(=O)(Nc1cc(-c2ccnc3cccnc23)cnc1Cl)c1ccc(F)cc1 [Example 42, N-(2-chloro-5-(1,5-naphthyridin-4-yl)-3-pyridinyl)-4-fluorobenzenesulfonamide]	1.73	0.62	0.0875
Nc1nc2ccc(-c3cnc(Cl)c(NS(=O)(=O)c4ccc(F)cc4)c3)cc2[nH]c1=O [Example 43, N-(5-(2-amino-3-oxo-3,4-dihydro-6-quinoxalinyl)-2-chloro-3-pyridinyl)-4-fluorobenzenesulfonamide]	5.04	0.0648	0.0169
COc1ccc(S(=O)(=O)Nc2cc(-c3ccc4nc(NC(C)=O)ccc4c3)cnc2Cl)cc1 [Example 45, N-(6-(6-chloro-5-(((4-methoxyphenyl)sulfonyl)amino)-3-pyridinyl)-2-quinolinyl)acetamide]	0.0646	0.0597	0.0192
COc1ccc(S(=O)(=O)Nc2cc(-c3ccc4nc(N)ccc4c3)cnc2Cl)cc1 [Example 46, N-(5-(2-amino-6-quinolinyl)-2-chloro-3-pyridinyl)-4-methoxybenzenesulfonamide]	0.108	0.18	0.136
COc1ccc(S(=O)(=O)Nc2cc(-c3ccc4ncccc4c3)cnc2Cl)cc1 [Example 47, N-(2-chloro-5-(6-quinolinyl)-3-pyridinyl)-4-methoxybenzenesulfonamide]	0.526	0.0249	0.0417
COc1ccc(S(=O)(=O)Nc2cc(-c3ccc4nccc(N(C)C)c4c3)cnc2Cl)cc1 [Example 49, N-(2-chloro-5-(4-(dimethylamino)-6-quinolinyl)-3-pyridinyl)-4-methoxybenzenesulfonamide]	0.273	0.0151	0.0074
COc1ccc(S(=O)(=O)Nc2cc(-c3ccc4nccc(N5CCC(OC)CC5)c4c3)cnc2Cl)cc1 [Example 50, N-(2-chloro-5-(4-(4-methoxy-1-piperidinyl)-6-quinolinyl)-3-pyridinyl)-4-methoxybenzenesulfonamide]	0.107	0.0366	0.003
O=S(=O)(Nc1cc(-c2ccc3ncc(N4CCCCC4)nc3c2)cnc1Cl)c1ccc(F)cc1 [Example 54, N-(2-chloro-5-(3-(1-piperidinyl)-6-quinoxalinyl)-3-pyridinyl)-4-fluorobenzenesulfonamide]	0.141	0.0842	0.0027
CC(=O)N1CCN(c2cnc3ccc(-c4cnc(Cl)c(NS(=O)(=O)c5ccc(F)cc5)c4)cc3n2)CC1 [Example 56, N-(5-(3-(4-acetyl-1-piperazinyl)-6-quinoxalinyl)-2-chloro-3-pyridinyl)-4-fluorobenzenesulfonamide]	0.0236	0.0318	0.0057
O=S(=O)(Nc1cc(-c2ccc3ncc(NCCOc4ccccc4)nc3c2)cnc1Cl)c1ccc(F)cc1 [Example 57, N-(2-chloro-5-(3-((2-phenoxyethyl)amino)-6-quinoxalinyl)-3-pyridinyl)-4-fluorobenzenesulfonamide]	0.0451	0.0079	0.0022
O=S(=O)(Nc1cc(-c2ccc3ncc(N4CCC(F)(F)CC4)nc3c2)cnc1Cl)c1ccc(F)cc1 [Example 58, N-(2-chloro-5-(3-(4,4-difluoro-1-piperidinyl)-6-quinoxalinyl)-3-pyridinyl)-4-fluorobenzenesulfonamide]	0.0635	0.0824	0.0034
CC(C)(C)OC(=O)N1CCCC(CNc2cnc3ccc(-c4cnc(Cl)c(NS(=O)(=O)c5ccc(F)cc5)c4)cc3n2)C1 (stereo not drawn) [Example 59, tert-butyl 3-(((7-(6-chloro-5-(((4-fluorophenyl)sulfonyl)amino)-3-pyridinyl)-2-quinoxalinyl)amino)methyl)-1-piperidinecarboxylate]	0.136	0.0225	0.0031
CC(Nc1cnc2ccc(-c3cnc(Cl)c(NS(=O)(=O)c4ccc(F)cc4)c3)cc2n1)c1ccc(F)cc1 (stereo not drawn) [Example 60, N-(2-chloro-5-(3-((1-(4-fluorophenyl)ethyl)amino)-6-quinoxalinyl)-3-pyridinyl)-4-fluorobenzenesulfonamide]	0.569	0.0436	0.0103
COc1ccc(CNc2cnc3ccc(-c4cnc(Cl)c(NS(=O)(=O)c5ccc(F)cc5)c4)cc3n2)cc1 [Example 63, N-(2-chloro-5-(3-((4-methoxybenzyl)amino)-6-quinoxalinyl)-3-pyridinyl)-4-fluorobenzenesulfonamide]	0.158	0.0502	0.0056
COC1CCCN(c2cnc3ccc(-c4cnc(Cl)c(NS(=O)(=O)c5ccc(F)cc5)c4)cc3n2)C1 (stereo not drawn) [Example 66]	0.0405	0.03	0.0027
